Test results from PubChem BioAssay (NCI).
Values joined by “and” are separate entries in the source; they are usually repeats but may differ in a detail not shown here. Equal entries are not always repeated.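 Each compound was tested at five concentrations against cells in 96-well plates for 48 hours. The concentration for 50% growth inhibition is given as GI50. TGI: total growth inhibition.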

Key:
Assay in all cases: inhibition of tumour cell growth, NCI panel, 48 h
HT29 colon = tested on: HT29 colon
SN12C renal = tested on: SN12C renal
UACC-257 melanoma = tested on: UACC-257 melanoma
SK-MEL-2 melanoma = tested on: SK-MEL-2 melanoma
MALME-3M melanoma = tested on: MALME-3M melanoma
LXFL 529 NSCLC = tested on: LXFL 529 NSCLC
SNB-19 CNS = tested on: SNB-19 CNS
HL-60(TB) leukemia = tested on: HL-60(TB) leukemia
HCC-2998 colon = tested on: HCC-2998 colon
U251 CNS = tested on: U251 CNS
HOP-62 NSCLC = tested on: HOP-62 NSCLC
MOLT-4 leukemia = tested on: MOLT-4 leukemia
SR leukemia = tested on: SR leukemia
LOX IMVI melanoma = tested on: LOX IMVI melanoma
NCI-H460 lung = tested on: NCI-H460 lung
EKVX NSCLC = tested on: EKVX NSCLC
SF-268 CNS = tested on: SF-268 CNS
A549 NSCLC = tested on: A549 NSCLC
NCI-H226 lung = tested on: NCI-H226 lung
KM20L2 colon = tested on: KM20L2 colon
OVCAR-5 ovarian = tested on: OVCAR-5 ovarian
OVCAR-4 ovarian = tested on: OVCAR-4 ovarian
DMS 273 small cell lung = tested on: DMS 273 small cell lung
IGROV1 ovarian = tested on: IGROV1 ovarian
DMS 114 small cell lung = tested on: DMS 114 small cell lung
786-0 renal = tested on: 786-0 renal

COc1cc(CN[C@H]2CCc3cc(OC)c(OC)c(OC)c3-c3ccc(SC)c(=O)cc32)cc(OC)c1
GI50 (HT29 colon): < 10 nM | TGI (HT29 colon): 62.7 nM and 25.1 nM | GI50 (SN12C renal): 62.3 nM | TGI (SN12C renal): > 100000 nM | GI50 (UACC-257 melanoma): 103 nM | TGI (UACC-257 melanoma): > 100000 nM | GI50 (SK-MEL-2 melanoma): 18.4 nM | TGI (SK-MEL-2 melanoma): 474 nM | GI50 (MALME-3M melanoma): < 10 nM | TGI (MALME-3M melanoma): > 100000 nM | GI50 (LXFL 529 NSCLC): 21.4 nM | TGI (LXFL 529 NSCLC): > 100000 nM | TGI (SNB-19 CNS): > 100000 nM | GI50 (HL-60(TB) leukemia): 24 nM | TGI (HL-60(TB) leukemia): > 100000 nM | GI50 (HCC-2998 colon): 20.4 nM | TGI (HCC-2998 colon): 108 nM and 74.8 nM | GI50 (U251 CNS): 24.7 nM | TGI (U251 CNS): 87.3 nM and 63.5 nM | GI50 (HOP-62 NSCLC): 81.4 nM | TGI (HOP-62 NSCLC): > 100000 nM | GI50 (MOLT-4 leukemia): 47.6 nM | TGI (MOLT-4 leukemia): 85500 nM | TGI (SR leukemia): 19400 nM | GI50 (LOX IMVI melanoma): 17.3 nM | GI50 (NCI-H460 lung): 31 nM | GI50 (EKVX NSCLC): 28.7 nM | TGI (EKVX NSCLC): > 100000 nM | GI50 (SF-268 CNS): 24.8 nM | TGI (A549 NSCLC): > 100000 nM | GI50 (NCI-H226 lung): 23.1 nM | TGI (NCI-H226 lung): 95 nM and 91.9 nM | GI50 (KM20L2 colon): 13 nM | TGI (KM20L2 colon): 42.5 nM and 30.7 nM | GI50 (OVCAR-5 ovarian): > 100000 nM | TGI (OVCAR-5 ovarian): > 100000 nM | TGI (OVCAR-4 ovarian): > 100000 nM | GI50 (DMS 273 small cell lung): < 10 nM | TGI (DMS 273 small cell lung): 140 nM | GI50 (IGROV1 ovarian): 69 nM | TGI (IGROV1 ovarian): > 100000 nM | GI50 (DMS 114 small cell lung): 16.6 nM | TGI (DMS 114 small cell lung): 50.5 nM and 61.3 nM | GI50 (786-0 renal): 30.7 nM | TGI (786-0 renal): 30800 nM
